Data reported in ChEMBL document CHEMBL1134730, “Synthesis and biological evaluation of didemnin photoaffinity analogues” (Bioorg Med Chem Lett, 2001).
*1 amine or outer side, *2 acyl side, *3 side chain or, on linkers, in order; H or OH if unused. Where a SMILES comes first, the peptide text is derived from it. Bridges are numbered along the chain shown (N, C = ends). [ ]: non-standard residue; d: D form. The star is where a group is joined. ξ: configuration not given here. X1 = CC[C@H](C)[C@@H](N[*:1])[C@@H](O)CC(=O)O[C@H](C(=O)[C@H](C)C(=O)[*:2])C(C)C; Benzoyl(4-benzoyl) = O=C(c1ccccc1)c1ccc(C(=O)*)cc1; NMeY = CN[C@@H](Cc1ccc(O)cc1)C(=O)O; dNMeL = CN[C@H](CC(C)C)C(=O)O; Ahx = NCCCCCC(=O)O; ξP = O=C(O)C1CCCN1

Assays:
Assay type in all cases: functional
[1] = The compound was evaluated for growth inhibition in NCI-60 tumor cells.; conditions: Homo sapiens
[2] = The compound was evaluated for total growth inhibition in NCI-60 tumor cells.; conditions: Homo sapiens
[3] = The compound was evaluated for inhibition of protein biosynthesis.
[4] = The compound was evaluated for toxicity in NCI-60 tumor cells.; conditions: Homo sapiens

SMILES | GI50 [1] [nM] | TGI [2] [µM] | IC50 [3] [µM] | LC50 [4] [µM]
CC[C@H](C)[C@H]1NC(=O)[C@@H](NC(=O)[C@@H](CC(C)C)N(C)C(=O)CCCCCNC(=O)CCCCCNC(=O)c2ccc(C(=O)c3ccccc3)cc2)[C@@H](C)OC(=O)[C@H](Cc2ccc(OC)cc2)N(C)C(=O)C2CCCN2C(=O)[C@H](CC(C)C)NC(=O)[C@@H](C)C(=O)[C@H](C(C)C)OC(=O)C[C@@H]1O (stereo partly specified) | 17 | 5 | 19 | 48
CC[C@H](C)[C@H]1NC(=O)[C@@H](NC(=O)[C@@H](CC(C)C)N(C)C(=O)CCCCCNC(=O)c2ccc(C(=O)c3ccccc3)cc2)[C@@H](C)OC(=O)[C@H](Cc2ccc(OC)cc2)N(C)C(=O)C2CCCN2C(=O)[C@H](CC(C)C)NC(=O)[C@@H](C)C(=O)[C@H](C(C)C)OC(=O)C[C@@H]1O (stereo partly specified) ({Benzoyl(4-benzoyl)-Ahx}-[dNMeL]T[X1]L[ξP][NMeY](Me); ester 2-C) | 4.3 | 21 | 24 | 19
CC[C@H](C)[C@H]1NC(=O)[C@@H](NC(=O)[C@@H](CC(C)C)N(C)C(=O)CNC(=O)c2ccc(C(=O)c3ccccc3)cc2)[C@@H](C)OC(=O)[C@H](Cc2ccc(OC)cc2)N(C)C(=O)C2CCCN2C(=O)[C@H](CC(C)C)NC(=O)[C@@H](C)C(=O)[C@H](C(C)C)OC(=O)C[C@@H]1O (stereo partly specified) ({Benzoyl(4-benzoyl)}-G[dNMeL]T[X1]L[ξP][NMeY](Me); ester 3-C) | 13 | 2 | 4.5 | 23
CC[C@H](C)[C@H]1NC(=O)[C@@H](NC(=O)[C@@H](CC(C)C)N(C)C(=O)c2ccc(C(=O)c3ccccc3)cc2)[C@@H](C)OC(=O)[C@H](Cc2ccc(OC)cc2)N(C)C(=O)C2CCCN2C(=O)[C@H](CC(C)C)NC(=O)[C@@H](C)C(=O)[C@H](C(C)C)OC(=O)C[C@@H]1O (stereo partly specified) ({Benzoyl(4-benzoyl)}-[dNMeL]T[X1]L[ξP][NMeY](Me); ester 2-C) | 3 | 0.35 | 4 | 15
